The source of these data is patent US20250129096A1, “ANNULATED 2-AMINO-3-CYANO THIOPHENES AND DERIVATIVES FOR THE TREATMENT OF CANCER” (Boehringer Ingelheim Int'l GmbH Corp., priority 2021, published 2025).

The target of one data set is T1, KRAS (WT)::SOS1 (Homo sapiens, UniProt P01116, C118S).
T1 construct: KRAS (WT) 1-169, N-terminal 6His-tag for purification, cleaved off; 6His-tag (N, cleaved yes); TEV cleavage site
Kind of data set: KRAS::SOS1 AlphaScreen binding assay, KRAS WT. How it is done:
(§1) Low IC50 values in this assay setting are indicative of strong inhibition of protein-protein interaction between SOS1 and KRAS:
(§2) These assays measure the inhibitory effect of compounds on KRAS mutant protein-protein interactions using the Alpha Screen technology by Perkin Elmer.
(§3) For the chosen highest assay concentration of 100 μM, 150 nL of compound solution are transferred from a 10 mM DMSO compound stock solution. A series of eleven fivefold dilutions per compound are transferred to the assay plate, compound dilutions are tested in duplicates. DMSO are added as backfill to a total volume of 150 nL.
(§4) The assays run on a fully automated robotic system in a darkened room below 100 Lux. To 150 nl of compound dilution 10 μl of a mix including KRAS mutant protein, SOS1 (final assay concentrations see above) and GDP nucleotide (Sigma G7127; final assay concentration 10 μM) in assay buffer (1×PBS, 0.1% BSA, 0.05% Tween 20) are added into columns 1-24. After 30 minutes incubation time 5 μl of Alpha Screen bead mix in assay buffer are added into columns 1-23.
(§5) Plates are kept at room temperature in a darkened incubator. After an additional 60 minutes incubation time the signal is measured in a PerkinElmer Envision HTS Multilabel Reader using the AlphaScreen specs from PerkinElmer.
(§6) IC50 values are calculated and analyzed with Boehringer Ingelheim's MEGALAB IC50 application using a 4 parametric logistic model.

The target of another data set is KRAS G12C Ba/F3 cells (Homo sapiens, UniProt P01116, G12C, cells depend on it). The data set can be described thus: Ba/F3 proliferation assay, KRAS G12C. The data set is classed as cell-based. Conditions: 72 h, AlamarBlue; read-out: KRAS G12C Ba/F3 IC50. How it is done:
(§7) To generate KRASG12-dependent Ba/F3 models, Ba/F3 cells are transduced with retroviruses containing vectors that harbor KRASG12 isoforms. Platinum-E cells (Cell Biolabs) are used for retrovirus packaging. Retrovirus is added to Ba/F3 cells. To ensure infection, 4 μg/mL polybrene is added and cells are spinfected. […] Cells with an infection efficiency of 10% to 20% are further cultivated and puromycin selection with 1 μg/mL is initiated. As a control, parental Ba/F3 cells are used to show selection status. Selection is considered successful when parental Ba/F3 cells cultures died. To evaluate the transforming potential of KRASG12 mutations, the growth medium is no longer supplemented with IL-3. Ba/F3 cells harboring the empty vector are used as a control. Approximately ten days before conducting the experiments, puromycin is left out. […] All treatments are performed in technical duplicates. […] AlamarBlue™(ThermoFisher), a viability stain, is added and fluorescence measured in the PerkinElmer Envision HTS Multilabel Reader. The raw data are imported into and analyzed with the Boehringer Ingelheim proprietary software MegaLab (curve fitting based on the program PRISM, GraphPad Inc.).

A further data set can be described thus: Caco-2 assay. The data set is classed as in vitro ADME. The settings on record: human; for Papp A→B at 90 min, 10 μM: Caco-2, apical to basolateral, pH 7.4, read-out: Caco PappAB; for efflux ratio at 90 min, 10 μM: Caco-2, pH 7.4, efflux ratio PappBA/PappAB, read-out: Caco ER. The text has this: The assay provides information on the potential of a compound to pass the cell membrane, on the extent of oral absorption as well as on whether the compound is actively transported by uptake and/or efflux transporters. Permeability measurements across polarized, confluent Caco-2 cell monolayers grown on permeable filter supports (Corning, catalog #3391) are used. […] The receiver and donor compartments contain 0.25% bovine serum albumine (BSA) in assay buffer. Passive diffusion and/or active transport of compounds across the monolayer is measured in both apical to basolateral (a-b) and basolateral to apical (b-a) direction. a-b permeability (PappAB) represents drug absorption from the intestine into the blood and b-a permeability (PappBA) drug secretion from the blood back into the intestine via both passive permeability as well as active transport mechanisms mediated by efflux and uptake transporters that are expressed on the Caco-2 cells. After a pre-incubation of 25-30 min at 37° C., at predefined time points (0, 30, 60 and 90 min), samples were taken from the receiver and donor compartment, respectively. Concentrations of test compounds in samples were measured by HPLC/MS/MS, samples from the donor compartment were diluted 1:50 (v:v) with assay buffer, samples from receiver compartment were measured without dilution.
Apparent permeabilities in a-b (PappAB) and b-a (PappBA) directions are calculated according to the formula:
[formula] • Vrec [mL]: buffer volume in receiver compartment • Cdon [μmol/mL]: concentration of test compound in donor compartment at t=0 • ΔCrec: difference between concentrations of test compound in receiver compartment at start and end of incubation time • Δt: Incubation time • Vrec·ΔCrec/Δt [μmol/min]: Amount of compound transferred to receiver compartment per time • A [cm^2]: filter surface
Caco-2 efflux ratios (ER) are calculated as the ratio of PappBA/PappAB.

For a further data set, the target named is KRAS G12V Ba/F3 cells (Homo sapiens, UniProt P01116, G12V, cells depend on it). The data set can be described thus: Ba/F3 proliferation assay, KRAS G12V. Conditions: 72 h, AlamarBlue; read-out: KRAS G12V Ba/F3 IC50. The data set is classed as cell-based. How it is done: as §7
KRAS G12V Ba/F3 cells, sequence (P01116 whole entry G12V): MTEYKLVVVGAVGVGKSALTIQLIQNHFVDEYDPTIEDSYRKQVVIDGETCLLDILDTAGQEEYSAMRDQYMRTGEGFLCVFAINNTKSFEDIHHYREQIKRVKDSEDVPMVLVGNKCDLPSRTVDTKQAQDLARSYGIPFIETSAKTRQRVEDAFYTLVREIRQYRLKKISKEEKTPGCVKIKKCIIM
For a further data set, the target named is T2, KRAS (G12V)::SOS1 (Homo sapiens, UniProt P01116, C118S/G12V).
T2 construct: KRAS (G12V) 1-169, N-terminal 6His-tag, for purification, cleaved off; 6His-tag (N, cleaved yes); TEV cleavage site
T2 sequence (P01116 1-169 isoform P01116-2 G12V/C118S): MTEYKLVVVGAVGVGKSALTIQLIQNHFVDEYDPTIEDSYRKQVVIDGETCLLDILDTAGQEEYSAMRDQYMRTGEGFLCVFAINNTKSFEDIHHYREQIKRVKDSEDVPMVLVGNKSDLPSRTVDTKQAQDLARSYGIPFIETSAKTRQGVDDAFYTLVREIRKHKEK
The data set can be described thus: KRAS::SOS1 AlphaScreen binding assay, KRAS G12V. How it is done:
as §1, §2, §3, §4, §5, §6

The subject of data set [1] is NCI-H358 cells (NSCLC, G12C). The data set can be described thus: NCI-H358 CTG proliferation assay (120 h), assay 2. The settings on record: Homo sapiens, CellTiter-Glo, 384-well, 200 cells per well. The data set is classed as cell-based. How it is done:
NCI-1H358 cells (ATCC No. CRL-5807) are dispensed into white bottom opaque 96 well plates (Perkin Elmer cat no. 5680) at a density of 2000 cells per well in 100 μL RPM 1-1640 ATCC-Formulation (Gibco #A10491)+10% FCS (fetal calf serum) (assay 1) or into black 384-well plates, flat and clear bottom (Greiner, PNr. 781091) at a density of 200 cells per well in 60 μl RPMI-1640 ATCC-Formulation (Gibco #A10491)+10% FCS (fetal calf serum) (assay 2). […] Compounds (10 mM stock in DMSO) are added at logarithmic dose series using the HP Digital Dispenser D300 (Tecan) (assay 1) or the ECHO acoustic liquid handler system (Beckman Coulter) (assay 2), normalizing for added DMSO and including DMSO controls. For the TO time point measurement, untreated cells are analyzed at the time of compound addition. Plates are incubated for 120 h, and cell viability is measured using CellTiter-Glo luminescent cell viability reagent (Promega product code G7570). Viability (stated as percent of control) is defined as relative luminescence units RLU of each well divided by the RLU of cells in DMSO controls. IC50 values are determined from viability measurements by non-linear regression using a four-parameter model.

T1 sequence (P01116 1-169 isoform P01116-2 C118S): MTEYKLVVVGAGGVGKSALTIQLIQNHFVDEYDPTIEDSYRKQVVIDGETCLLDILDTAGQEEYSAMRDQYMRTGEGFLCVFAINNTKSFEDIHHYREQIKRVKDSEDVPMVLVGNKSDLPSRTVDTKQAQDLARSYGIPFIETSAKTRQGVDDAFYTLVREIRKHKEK
KRAS G12C Ba/F3 cells, sequence (P01116 whole entry G12C, canonical isoform): as the sequence (P01116 whole entry G12V) above, with V12C counted along it

The compound `C[C@H]1CNCCCN1c1nccc(-c2noc3c2CCC[C@@]32CCCc3sc(N)c(C#N)c32)n1` (single isomer, unassigned) [IIb-5] returned an IC50 at KRAS (WT)::SOS1 of 0.012 µM. Further, the GI50 at KRAS G12C Ba/F3 cells was 0.088 µM. Further, in the data set “Caco-2 assay”, the Papp A→B at 90 min, 10 μM was determined as 130 nm/s and the efflux ratio at 90 min, 10 μM stood at 1.2.
For the compound `CC1Cc2c(-c3ccnc(N4CCCNC[C@@H]4C)n3)noc2C2(CCCc3sc(N)c(C#N)c32)C1` (stereo partly drawn) [IIb-1], the results for the GI50 on KRAS G12C Ba/F3 cells and at KRAS G12V Ba/F3 cells were 0.666 µM and 0.337 µM, respectively.
For the compound `C[C@H]1CNCCCN1c1nccc(-c2noc3c2CC(F)(F)CC32CCCc3sc(N)c(C#N)c32)n1` (stereo partly drawn) [IIb-2], the results for the GI50 on KRAS G12C Ba/F3 cells and on KRAS G12V Ba/F3 cells were 0.507 µM and 0.478 µM, respectively.
In the case of `C[C@H](Oc1ccnc(-c2noc3c2CCC[C@@]32CCCc3sc(N)c(C#N)c32)n1)[C@@H]1CCCN1C` [IIb-3], the half-maximal inhibitory concentration (IC50) at KRAS (G12V)::SOS1 is 0.002 µM; on KRAS (WT)::SOS1 it was 0.007 µM; in data set [1], 0.743 µM. For the same compound, the GI50 at KRAS G12C Ba/F3 cells stood at 0.023 µM; on KRAS G12V Ba/F3 cells, 0.025 µM. Also, the Papp A→B at 90 min, 10 μM in “Caco-2 assay” stood at 170 nm/s. The efflux ratio at 90 min, 10 μM in the data set “Caco-2 assay” is 2.
Regarding `C[C@H]1CNCCCN1c1nccc(-c2noc3c2CSCC32CCCc3sc(N)c(C#N)c32)n1` (stereo partly drawn) [IIb-4], the GI50 turned out to be 0.485 µM on KRAS G12C Ba/F3 cells and 0.138 µM on KRAS G12V Ba/F3 cells.
For `C[C@H]1CNCCCN1c1nccc(-c2noc3c2OCCC32CCCc3sc(N)c(C#N)c32)n1` (stereo partly drawn) [IIb-7], in that order: 0.131 µM and 0.136 µM.
For `C[C@H](Oc1nccc(-c2noc3c2CCC[C@@]32CCCc3sc(N)c(C#N)c32)n1)[C@@]1(C)CCCN1C` [IIe-1], in that order: 0.254 µM and 0.203 µM.
With `C[C@H]1CNCCN1c1nccc(-c2noc3c2CCC[C@@]32CCCc3sc(N)c(C#N)c32)n1` [IIf-1], the IC50 in data set [1] worked out at 3 µM. In the data set “Caco-2 assay”, the Papp A→B at 90 min, 10 μM came to 120 nm/s.
In the case of `C[C@@H]1NCCCN(c2nccc(-c3onc4c3CCC[C@@]43CCCc4sc(N)c(C#N)c43)n2)[C@H]1C` [Ib-2], the GI50 at KRAS G12C Ba/F3 cells came to 0.126 µM.
Regarding `C[C@H]1CNCCCN1c1ncnc(-c2onc3c2CCC[C@@]32CCCc3sc(N)c(C#N)c32)n1` [Ib-4], the GI50 on KRAS G12C Ba/F3 cells came to 0.295 µM.
For the compound `C[C@H]1[C@@H]2CCCN2CCCN1c1nccc(-c2onc3c2CCC[C@@]32CCCc3sc(N)c(C#N)c32)n1` [Id-1], the 50% inhibitory concentration (IC50) on KRAS (G12V)::SOS1 came out at 0.008 µM; at KRAS (WT)::SOS1 it was 0.009 µM. The GI50 on KRAS G12C Ba/F3 cells came out at 0.042 µM.
Consider `CO[C@@H]1C[C@@H]([C@H](C)Oc2nccc(-c3onc4c3CCC[C@@]43CCCc4sc(N)c(C#N)c43)n2)N(C)C1` [Ie-1], for which the GI50 at KRAS G12C Ba/F3 cells is 0.043 µM; at KRAS G12V Ba/F3 cells, 0.029 µM.
Consider `C[C@H](Oc1nccc(-c2onc3c2CCC[C@@]32CCCc3sc(N)c(C#N)c32)n1)[C@@H]1C[C@@H](F)CN1C` [Ie-2], for which the IC50 on KRAS (G12V)::SOS1 was found to be 0.023 µM. The GI50 on KRAS G12C Ba/F3 cells turned out to be 0.155 µM; at KRAS G12V Ba/F3 cells it was 0.106 µM. For the same compound, in the data set “Caco-2 assay”, the Papp A→B at 90 min, 10 μM came out at 330 nm/s. For the same compound, the efflux ratio at 90 min, 10 μM in the data set “Caco-2 assay” came out at 0.6.
Take `CCN1[C@H]2C[C@H]2C[C@H]1[C@H](C)Oc1nccc(-c2onc3c2CCC[C@@]32CCCc3sc(N)c(C#N)c32)n1` [Ie-3]: the GI50 on KRAS G12C Ba/F3 cells is 0.049 µM; at KRAS G12V Ba/F3 cells, 0.084 µM. The compound also came in with a concentration for half-maximal inhibition (IC50) in data set [1] of 1.71 µM.
For the compound `CC(Oc1nccc(-c2onc3c2CCC[C@@]32CCCc3sc(N)c(C#N)c32)n1)C12CCCN1CCC2` (stereo partly drawn) [Ie-5], the GI50 stood at 0.118 µM on KRAS G12C Ba/F3 cells and 0.092 µM on KRAS G12V Ba/F3 cells.
Regarding `C[C@H]1CNCCCN1c1nccc(-c2onc3c2CCC[C@@]32CCCc3sc(N)c(C#N)c32)n1` [If-1], the figures for the half-maximal inhibitory concentration (IC50) (at KRAS (G12V)::SOS1; on KRAS (WT)::SOS1; in data set [1]) were 0.201 µM, 0.043 µM and 2.2 µM, respectively. Moreover, the GI50 at KRAS G12C Ba/F3 cells worked out at 0.134 µM; on KRAS G12V Ba/F3 cells, 0.098 µM. Also, the Papp A→B at 90 min, 10 μM in “Caco-2 assay” amounted to 94 nm/s. Besides, the efflux ratio at 90 min, 10 μM in the data set “Caco-2 assay” stood at 3.2.
As for `C[C@H](Oc1nccc(-c2onc3c2CCC[C@@]32CCCc3sc(N)c(C#N)c32)n1)[C@@H]1C[C@@H]2C[C@@H]2N1` [If-2], the GI50 on KRAS G12C Ba/F3 cells was determined as 8.51 µM.
`C[C@H](Oc1nccc(-c2onc3c2CCC[C@@]32CCCc3sc(N)c(C#N)c32)n1)[C@@H]1C[C@@H]2C[C@@H]2N1C` [Ih-1]: the GI50 is 0.072 µM at KRAS G12C Ba/F3 cells and 0.094 µM on KRAS G12V Ba/F3 cells. In data set [1], this compound yielded a concentration for half-maximal inhibition (IC50) of 3.57 µM.
